Source: patent publication US20260098061A1, “EPHA2-BINDING PENDING PEPTIDE AND COMPOSITION COMPRISING SAME” (PeptiDream Inc., priority 2022, published 2026)
Bridge positions count the residues as written; N and C are the ends. Square brackets hold non-standard residues; d marks the D form. Peptide text beside a SMILES is read from it. * marks the point of attachment. NH(1-deoxy-D-glucityl) = OC[C@@H](O)[C@@H](O)[C@H](O)[C@@H](O)CN*; Trp(1-Me,7-Cl) = Cn1cc(C[C@H](N)C(=O)O)c2cccc(Cl)c21; dPhe(3-CONH2) = NC(=O)c1cccc(C[C@@H](N)C(=O)O)c1; Trp(1-Me) = Cn1cc(C[C@H](N)C(=O)O)c2ccccc21; NMe3Pal = CN[C@@H](Cc1cccnc1)C(=O)O; NMeF = CN[C@@H](Cc1ccccc1)C(=O)O; hCit = NC(=O)NCCCC[C@H](N)C(=O)O; NMeN = CN[C@@H](CC(N)=O)C(=O)O

Molecular target: T1, Recombinant Human EphA2 Fc Protein (Homo sapiens, UniProt P29317)
T1 construct: purchased Elabscience
Experiment: SPR interaction analysis (Biacore T200), kinetics of peptides against EphA2
Format: binding
Settings: Recombinant Human EphA2 Fc Protein captured by Human Antibody Capture kit; single-cycle kinetics; 25° C.; HBS-P+ buffer with 1% DMSO
How it was run: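 On a Biacore T200 at 25° C, Fc-tagged human EphA2 was captured via anti-human antibody; peptides ran as five serial dilutions in HBS-P+ pH 7.4 with 1% DMSO by single-cycle kinetics. Baseline-subtracted data fitted for ka and kd, from which KD was derived.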

| SMILES | Kd [nM] |
| --- | --- |
| CC(C)C[C@@H]1NC(=O)[C@H](CC(N)=O)NC(=O)[C@H](Cc2c[nH]cn2)NC(=O)[C@H](Cc2ccccc2)NC(=O)CSC[C@@H](C(=O)NCC(N)=O)NC(=O)[C@H](Cc2cn(C)c3ccccc23)NC(=O)[C@H](CCCCNC(N)=O)NC(=O)[C@H](Cc2cn(C)c3ccccc23)NC(=O)[C@H](Cc2ccccc2)N(C)C(=O)[C@H](CO)NC1=O [PDC_EphA2-00022606, F-H-N-L-S-MeF-W1Me-Hcit-W1Me-C-G-NH2] ({CH2CO}-FHNLS[NMeF][Trp(1-Me)][hCit][Trp(1-Me)]CG-NH2; thioether N-10) | 10 to 100 |
| CC(=O)NCCCC[C@H](NC(=O)[C@@H]1CSCC(=O)N[C@@H](Cc2ccccc2)C(=O)N[C@@H](Cc2c[nH]cn2)C(=O)N[C@@H](CC(N)=O)C(=O)N[C@@H](CC(C)C)C(=O)N[C@@H](CO)C(=O)N(C)[C@@H](Cc2ccccc2)C(=O)N[C@@H](Cc2cn(C)c3ccccc23)C(=O)N[C@@H](CCCCNC(N)=O)C(=O)N[C@@H](Cc2cn(C)c3ccccc23)C(=O)N1)C(N)=O [PDC_EphA2-00022607, F-H-N-L-S-MeF-W1Me-Hcit-W1Me-C-KAc-NH2] ({CH2CO}-FHNLS[NMeF][Trp(1-Me)][hCit][Trp(1-Me)]CK(Ac)-NH2; thioether N-10) | 10 to 100 |
| CC(=O)NCCCC[C@@H](NC(=O)[C@@H]1CSCC(=O)N[C@@H](Cc2ccccc2)C(=O)N[C@@H](Cc2c[nH]cn2)C(=O)N[C@@H](CC(N)=O)C(=O)N[C@@H](CC(C)C)C(=O)N[C@@H](CO)C(=O)N(C)[C@@H](Cc2ccccc2)C(=O)N[C@@H](Cc2cn(C)c3ccccc23)C(=O)N[C@@H](CCCCNC(N)=O)C(=O)N[C@@H](Cc2cn(C)c3ccccc23)C(=O)N1)C(N)=O [PDC_EphA2-00022608, F-H-N-L-S-MeF-W1Me-Hcit-W1Me-C-dkAc-NH2] ({CH2CO}-FHNLS[NMeF][Trp(1-Me)][hCit][Trp(1-Me)]C[dK](Ac)-NH2; thioether N-10) | 10 to 100 |
| CC(C)C[C@@H]1NC(=O)[C@H](CC(N)=O)NC(=O)[C@H](Cc2cccnc2)N(C)C(=O)[C@@H](Cc2cccc(C(N)=O)c2)NC(=O)CSC[C@@H](C(N)=O)NC(=O)[C@H](CC(N)=O)NC(=O)[C@H]([C@@H](C)O)NC(=O)[C@H](Cc2cn(C)c3ccccc23)NC(=O)[C@H](CCC(=O)NC[C@H](O)[C@@H](O)[C@H](O)[C@H](O)CO)NC(=O)[C@H](Cc2cn(C)c3c(Cl)cccc23)NC(=O)[C@H](Cc2ccccc2)N(C)C(=O)[C@H](CC(N)=O)NC1=O [PDC_EphA2-00026424, df3CON-Me3Py-N-L-N-Me3Py-W1Me7Cl-Qglucamine-W1Me-T-N-C-NH2] ({CH2CO}-[dPhe(3-CONH2)][NMe3Pal]NLN[NMeF][Trp(1-Me,7-Cl)]E(NH(1-deoxy-D-glucityl))[Trp(1-Me)]TNC-NH2; thioether N-12) | < 1 |
| CC(C)C[C@@H]1NC(=O)[C@H](CC(N)=O)NC(=O)[C@H](Cc2cccnc2)N(C)C(=O)[C@@H](Cc2cccc(C(N)=O)c2)NC(=O)CSC[C@@H](C(N)=O)NC(=O)[C@H](CC(N)=O)NC(=O)[C@H]([C@@H](C)O)NC(=O)[C@H](Cc2cn(C)c3ccccc23)NC(=O)[C@H](CCC(=O)NC[C@H](O)[C@@H](O)[C@H](O)[C@H](O)CO)NC(=O)[C@H](Cc2cn(C)c3c(Cl)cccc23)NC(=O)[C@H](CC(N)=O)N(C)C(=O)[C@H](CC(N)=O)NC1=O [PDC_EphA2-00026425, df3CON-Me3Py-N-L-N-MeN-W1Me7Cl-Qglucamine-W1Me-T-N-C-NH2] ({CH2CO}-[dPhe(3-CONH2)][NMe3Pal]NLN[NMeN][Trp(1-Me,7-Cl)]E(NH(1-deoxy-D-glucityl))[Trp(1-Me)]TNC-NH2; thioether N-12) | < 1 |
